The structures appear in SMILES notation.

Usually IC50 stands for the concentration at which inhibition is half-maximal. High values mean lower potency, low ones higher potency.

In test [1] the target is T1, human placental aromatase (Homo sapiens, UniProt P11511).
T1 construct: the enzyme system was isolated from the microsomal fraction of human placental tissue; from tissue; host or cells: human placenta, microsomal fraction
T1 sequence (P11511 1-503): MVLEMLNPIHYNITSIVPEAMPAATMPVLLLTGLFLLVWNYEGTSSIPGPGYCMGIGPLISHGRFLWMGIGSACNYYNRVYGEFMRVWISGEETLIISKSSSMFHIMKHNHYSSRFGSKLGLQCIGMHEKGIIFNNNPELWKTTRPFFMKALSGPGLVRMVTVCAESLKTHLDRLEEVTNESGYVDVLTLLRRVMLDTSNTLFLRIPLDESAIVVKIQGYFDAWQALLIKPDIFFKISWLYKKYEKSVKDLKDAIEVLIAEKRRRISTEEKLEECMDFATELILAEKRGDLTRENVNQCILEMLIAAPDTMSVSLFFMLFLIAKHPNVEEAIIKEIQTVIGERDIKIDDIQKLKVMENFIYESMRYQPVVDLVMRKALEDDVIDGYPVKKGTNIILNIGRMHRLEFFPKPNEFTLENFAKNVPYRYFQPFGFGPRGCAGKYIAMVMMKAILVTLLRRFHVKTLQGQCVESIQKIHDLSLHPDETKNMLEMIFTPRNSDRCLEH
Briefly: Inhibition of human placental aromatase in vitro (3H2O release from 4-[1β,2β-3H]androstene-3,17-dione). The note with it: for IC50: microsomal fraction of human placental tissue, 50 nM 4-[3H]androstenedione, 100 μM NADPH, 0.05 mg microsomal proteins, 37° C., pH 7.5, 15 minutes; for Relative potency: versus aminoglutethimide (= 1 by definition). The format is biochemical. As to the method: The assay of the aromatase inhibition in vitro was carried out as follows: the enzyme system was isolated from the microsomal fraction of human placental tissue according to standard procedure. […] All incubations were carried out in a shaking water bath at 37° C. in air in 10 mM potassium phosphate buffer, pH 7.5, which contained 100 mM KCl, 1 mM EDTA and 1 mM dithiothreitol.
The experiments were carried out in 1 ml incubation volume containing 50 nM 4-[^3 H]androstenedione, various concentrations of the inhibitors, 100 μM NADPH and 0.05 mg of microsomal proteins. After 15 minutes of incubation the reaction was stopped by the addition of choroform (5 ml).
After centrifugation at 1500 ×g for 5 minutes aliquots (0.5 ml) were removed from the water phase for determination of ^3 H2 O formed.

The test system of the next test is aromatase. As to conditions: literature reports; cited from earlier work.

In test [1], `Nc1ccc(C2CCCCC2)cc1` [4-cyclohexylaniline] returned an IC50 of 1220 nM and a Relative potency of 1.7. For the same molecule, the “aromatase-inhibiting action (in words)” value in the test on aromatase is recorded as “more or less selective aromatase-inhibiting action”.

As for `CCC1(c2ccncc2)CCC(=O)NC1=O` (centres unmarked) [4-pyridyl-3-ethyl-2,6-piperidinedione], the “aromatase-inhibiting action (in words)” value in the test with aromatase was “more or less selective aromatase-inhibiting action”.

In test [1], `C[C@@H](C(=O)OC1CCCCC1)c1ccc(N)cc1` [FCE 24328, cyclohexyl 2-(R)-2-(4'-aminophenyl)propionate] came in with an IC50 of 100 nM and a Relative potency of 21.2.

In test [1], `C[C@@H](C(=O)NC1CCCCC1)c1ccc(N)cc1` [FCE 24786, N-cyclohexyl-2-(R)-2-(4'-aminophenyl)propanamide] gave an IC50 of 130 nM and a Relative potency of 16.3.

These data come from patent publication US4769483A, “Cycloalkyl-substituted 4-aminophenyl derivatives and process for their preparation” (Farmitalia Carlo Erba, S.p.A., priority 1985, dated 1988).
